Measured values published in patent US9566334B2, “Combinations of a PI3K/AKT inhibitor compound with an HER3/EGFR inhibitor compound and use thereof in the treatment of a hyperproliferative disorder” (THE GENERAL HOSPITAL CORPORATION, priority 2012, dated 2017).
“Also recorded” adds a separate entry of the source.

Legend:
[1] = system: MDA-MB-468- and HCC70-derived xenografts; test: Cell line-derived xenograft tumor growth; format: in vivo, mice; details: MDA-MB-468 and HCC70 xenografts; p less than 0.01 combination vs monotherapy
Description: To expand these findings in vivo, the efficacy of MEHD7945A was tested in combination with either the Akt or PI3K inhibitor in both MDA-MB-468- and HCC70-derived xenografts.
(§1) For cell line-derived xenograft studies, mice were injected subcutaneously with 1×10^7 HCC70 or MDA-MB-468 suspended in 150 μL culture media/Matrigel (BD Biosciences) in a 4:1 ratio. One μmol/L of 17β-estradiol was supplemented in the mouse drinking water as described (Garcia-Garcia et al., Clinical cancer research: an official journal of the American Association for Cancer Research 18, 2603 (2012)).
(§2) Once tumors reached an average volume of about 150-250 mm^3, mice were randomized into treatment arms, with n=7-11 tumors/group. GDC-0068 [40 mg/kg] or GDC-0941 [75 mg/kg] were dissolved in 0.5% methylcellulose and 0.2% Tween-80 (MCT) solution and administered once daily via oral gavage. […] Tumors were measured by digital caliper over the entire treatment period. Tumor volume was determined using the formula: (length×width^2)×(π/6). Tumor volumes are plotted as means±SEM.

[2] = system: patient-derived xenografts (PDX) of TNBC; test: Patient-derived xenograft tumor growth; format: in vivo, mice; details: MEHD7945A 10 mg/Kg twice weekly, GDC-0941 75 mg/Kg daily, GDC-0068 40 mg/kg daily
Description: The activity of the same treatments in patient-derived xenografts (PDX) of TNBC was then tested.
(§3) For patient-derived xenograft (PDX) studies, tumors were subcutaneously implanted in 6-week old female athymic nude mice. Upon xenograft growth, tumor tissue was reimplanted into recipient mice, which were randomized upon implant growth. For the collection of circulating tumor cells (CTCs), tumors were implanted into the mammary pad of athymic nude mice.
as §2

EGFR and HER3 = test: CEER analysis of active and total EGFR and HER3 in xenograft tumors; format: in vivo, mice; details: for active and total levels of HER3 and EGFR (CEER): TNBC PDX, tumors harvested 2 h after the last drug administration
Description: The levels of EGFR and HER3 expression/activation in HCC70 tumors collected at the end of the experiments (day 39) was investigated. […] Frozen tissue was analyzed by Cooperative, Enhanced, Enzyme Immunoreactive (CEER), a platform that utilizes reverse-phase detection of nanogram quantities of protein.
The levels of pathway protein expression and their activation in xenografts were determined by CEER. (Kim et al., ASCO Annual Meeting abstract P2-06-13, (2010)) CEER utilizes the formation of unique immuno-complexes between capture antibodies printed on a nitrocellulose microarray surface, the target molecule in cell lysate reacted with the slide, and two independent detector-antibodies. One of the detector-antibody is conjugated to glucose oxidase, and the other is conjugated to horseradish peroxidase. Target detection (expressed as computational unit, CU) requires the presence of both detector-antibodies and the enzyme channeling event between glucose oxidase and horseradish peroxidase will not occur unless both antibodies are in close proximity.

TNBC cell lines = test: Cell viability by CellTiter-Glo and Crystal Violet; format: cell-based; details: across all TNBC cell lines; read-out: IC50s, inhibition of cell viability
Description: (§4) Several TNBC cell lines were treated with MEHD7945A, a dual-action antibody that targets both EGFR and HER3, AKT inhibitor GDC-0068, and pan-PI3K inhibitor GDC -0941. Cell viability was measured by CellTiter-Glo and Crystal Violet. Both cell line- and patient -derived xenograft models of TNBC were treated with MEHD7945A, GDC-0068, GDC-0941, or the combination of MEHD7945A with either GDC-0068 or GDC-0941. Tumor size and histology were examined. Protein expression was measured by Western blot, Mass Spectometry, CEER and immunohistochemistry.
(§5) For proliferation, 5×10^5 cells were seeded in 96-well plates and treated with the indicated concentrations of GDC-0068, GDC-0941, and/or MEHD7945A. After 5 days, cells were fixed and stained with Crystal Violet. Cell proliferation was also analyzed with CellTiter-Glo Luminescent Cell Viability Assay (Promega) as described by the manufacturer. For heregulin (HRG, Peprotech) and epidermal growth factor (EGF, Peprotech)-induced proliferation, 5×10^5 cells were treated with GDC-0068, GDC-0941, and/or MEHD7945A in the presence of 4 ng/ml of ligands for 5 days and then stained with Crystal Violet.

[3] = system: MDA-MB-468, HCC70 and patient-derived xenograft; test: In vivo activity in three different models of TNBC; design: species or system mice; details: for tumor growth: three TNBC models, MEHD7945A 10 mg/kg i.p. twice weekly, GDC-0068 40 mg/kg, GDC-0941 75 mg/kg oral once daily
Description: as §4
To test the activity of these compounds in vivo, three different models of TNBC were used: two cell line (MDA-MB-468 and HCC70)-based and a patient-derived xenograft.
All mouse studies were conducted through institutional Animal Care and Use Committee (IACUC) approved animal protocols in accordance with institutional guidelines. Six-week-old female athymic nude mice were purchased from Charles River Laboratories and housed in air-filtered laminar flow cabinets with a 12-hour light cycle and food and water ad libitum.
as §1, §3, §2

[4] = system: EGFR, HER3 and downstream signaling pathways; test: Western blot of EGFR, HER3 and downstream signaling in cells; format: cell-based; details: for expression of HER3: HCC70 and MDA-MB-468 cells; for expression of HER3 / activation of EGFR and HER3: 1 uM; for activation of EGFR and HER3: HCC70 cells
Description: HCC70 and MDA-MB-468 TNBC cell lines, characterized by elevated levels of EGFR and loss of PTEN expression, were treated with GDC-0068, GDC-0941, MEHD7945A, and the combinations of these inhibitors.
Cells were washed with ice-cold phosphate buffered saline (PBS) and scraped into ice-cold RIPA lysis buffer (Cell Signaling) supplemented with phosphatase inhibitor cocktails (Complete Mini, and PhosphoStop (Roche)). Lysates were cleared by centrifugation at 13,000 rpm for 10 minutes at 4° C., supernatants removed and assayed for protein concentration using the Pierce BCA Protein Assay Kit (Thermo Scientific). Thirty-five micrograms of total lysate was resolved on NuPAGE 4-12% Bis-Tris gels (Life Technologies) and electrophoretically transferred to Immobilon transfer membranes (Millipore). Membranes were blocked for 1 hour in 5% nonfat dry milk in TBS-Tween and then hybridized using the following primary antibodies in 5% bovine serum albumin (BSA) TBS-Tween: phospho-Akt (Ser473), phospho-Akt (Thr308), Akt, phospho-S6 (Ser(240/4), phospho-S6 (Ser235/6), S6, phospho-PRAS40 (Thr246), PRAS40, phospho-Erk (Thr202/Tyr204), Erk, phospho-EGFR (Tyr1068), EGFR, phospho-HER3 (Tyr1289), HER3 (1:500-1:1000, Cell Signaling). Beta-actin was used as a loading control (1:5000, Sigma), also in 5% BSA TBS-Tween. Mouse and rabbit horseradish peroxidase (HRP)-conjugated secondary antibodies (1:50,000, Amersham Biosciences) were diluted in 2% nonfat dry milk in TBS-Tween. Protein—antibody complexes were detected by chemiluminescence with SuperSignal West FemtoChemiluminescent Substrate (Thermo Scientific) and images were captured with a G-BOX camera system.

[5] = system: HCC70 and MDA-MB-468 cells; test: Five days proliferation analysis (Crystal Violet / CellTiter-Glo); format: cell-based; details: 5 days; MEHD7945A 10 nM, GDC-0068 and GDC-0941 1 uM
Description: Whether the combination of MEHD7945A with GDC-0068 or GDC-0941 would result in enhanced antiproliferative activity was tested in both HCC70 and MDA-MB-468 cells.
as §5

HCC70 cells = test: Heregulin- and EGF-induced proliferation; format: cell-based
Description: For proliferation, 5×10^5 cells were seeded in 96-well plates and treated with the indicated concentrations of GDC-0068, GDC-0941, and/or MEH[…]. After 5 days, cells were fixed and stained with Crystal Violet. Cell proliferation was also analyzed with CellTiter-Glo Luminescent Cell Viability Assay (Promega) as described by the manufacturer. For heregulin (HRG, Peprotech) and epidermal growth factor (EGF, Peprotech)-induced proliferation, 5×10^5 cells were treated with GDC-0068, GDC-0941, and/or MEH[…] in the presence of 4 ng/ml of ligands for 5 days and then stained with Crystal Violet.

[6] = HCC70 tumors collected at day 39
[7] = cells stimulated with either EGF or Heregulin

| Molecule | tumor growth inhibition [1] | tumor growth [2] | EGFR and HER3 expression and phosphorylation (CEER) (EGFR and HER3; [6]) | active and total levels of HER3 and EGFR (CEER) (EGFR and HER3) | IC50 (TNBC cell lines) [nM] | tumor growth [3] | expression of HER3 ([4]; 24 hours) | activation of EGFR and HER3 ([4]; 24 hours) | inhibition of cell proliferation/viability [5] | effect on antiproliferative activity mediated by PI3K/Akt inhibition (HCC70 cells; HCC70 cells stimulated with EGF, antibodies 10 nM, GDC-0068 and GDC-0941 1 uM, 5 days) | cooperation with the antiproliferative activity of GDC-0068 and GDC-0941 (HCC70 cells; HCC70 cells stimulated with heregulin (HRG), antibodies 10 nM, 5 days) | effect on antiproliferative activity of the PI3K inhibitors (HCC70 cells; [7]) | EGFR phosphorylation (CEER) (EGFR and HER3; HCC70 xenografts) | HER3 activation (CEER) (EGFR and HER3; HCC70 xenografts) | EGFR and HER3 phosphorylation consequent to PI3K inhibition in treated tumors ([3]; analysis of treated tumors) | inhibition of the PI3K and ERK downstream pathways ([4]; addition of MEHD7945A 10 nM to GDC-0068 or GDC-0941, both cell lines) | induction of EGFR and HER3 phosphorylation by GDC-0068 or GDC-0941 ([4]; addition of MEHD7945A 10 nM, both cell lines, 24 hours) | HER3/EGFR receptor phosphorylation [4, 7] | total EGFR receptor levels (CEER) (EGFR and HER3; [6]) |
| --- | --- | --- | --- | --- | --- | --- | --- | --- | --- | --- | --- | --- | --- | --- | --- | --- | --- | --- | --- |
| CS(=O)(=O)N1CCN(Cc2cc3nc(-c4cccc5[nH]ncc45)nc(N4CCOCC4)c3s2)CC1 [GDC-0941, 4-(2-(1H-indazol-4-yl)-6-((4-(methylsulfonyl)piperazin-1-yl)methyl)thieno[3,2-d]pyrimidin-4-yl)morpholine] | responded only modestly | delayed tumor growth | overall increase of both EGFR and HER3 expression and phosphorylation | increased | ≥ 170 | variable delay in tumor growth | increased expression of HER3 | activation of both EGFR and HER3 | varying sensitivity |  |  |  |  |  |  |  |  |  |  |
| MEHD7945A: dual-action antibody with two identical antigen binding domains, each of which specifically binds to both HER3 and EGFR | responded only modestly | delayed tumor growth |  | prevented receptor phosphorylation |  | variable delay in tumor growth |  |  | varying sensitivity | enhanced the antiproliferative activity mediated by PI3K/Akt inhibition | superior to cetuximab | improved the antiproliferative activity of the PI3K inhibitors | blocked EGFR phosphorylation | decreased HER3 activation | effectively prevented EGFR and HER3 phosphorylation | enhanced the inhibition of the PI3K and ERK downstream pathways | prevented the induction of EGFR and HER3 phosphorylation | prevented HER3/EGFR receptor phosphorylation |  |
| CC(C)NC[C@@H](C(=O)N1CCN(c2ncnc3c2[C@H](C)C[C@H]3O)CC1)c1ccc(Cl)cc1 [GDC-0068] | responded only modestly | superior antitumor activity compared with GDC-0941 | overall increase of both EGFR and HER3 expression and phosphorylation | increased; also recorded: lower ability to induce EGFR and HER3 phosphorylation | ≥ 170 | variable delay in tumor growth | increased expression of HER3 | activation of both EGFR and HER3 | varying sensitivity |  |  |  |  |  |  |  |  |  | no changes in the total receptor levels were observed |
